Results taken from article PMC7279002, “Novel 3′-Substituted-1′,2′,4′-Oxadiazole Derivatives of 18βH-Glycyrrhetinic Acid and Their O-Acylated Amidoximes: Synthesis and Evaluation of Antitumor and Anti-Inflammatory Potential In Vitro and In Vivo” (International Journal of Molecular Sciences, 2020).

How the values were obtained:
murine melanoma B16 = assay: MTT cytotoxicity assay, 48 h; format: cell-based; conditions: for Selectivity index: B16: IC50 in hFF3 / IC50 in B16; for IC50: Mus musculus, MTT, 48 h
Experimental: (§1) On the first step of the biological evaluation of novel GA derivatives 3a-h, 4a-h, and 5a-h, we analyzed their cytotoxicity in a panel of cultured mammalian cells, including human cervical carcinoma HeLa and KB-3-1, human duodenal carcinoma HuTu-80, human lung adenocarcinoma A549, murine melanoma B16 cell lines, and nontransformed human fibroblasts hFF3. The cells were treated with derivatives for 48 h and cell viability was evaluated by 3-(4, 5-dimethylthiazol-2-yl)-2, 5-diphenyltetrazolium bromide (MTT) assay. Since the studied compounds contain two types of functional groups at position 3-acetoxy- or the hydroxyl-group, 3-acetoxy-GA 1 and GA-Me were used as references. Additionally, hierarchical clustering of cytotoxic data was carried out in order to reveal groups of compounds with similar cytotoxic profiles (Figure 2A).
(§2) Human cervical carcinoma HeLa and KB-3-1 cells, human duodenal carcinoma HuTu-80 cells, and human lung adenocarcinoma A549 cells were obtained from the Russian Culture Collection (Institute of Cytology, RAS, St. Petersburg, Russia). Melanoma B16-F10 (hereafter, melanoma B16) cells were obtained from the Cell Culture Bank of the Blokhin National Medical Oncology Research Center (Moscow, Russia). Nonmalignant fibroblasts hFF3 and RAW264.7 macrophages were kindly provided by Dr. Olga A. Koval (Institute of Chemical Biology and Fundamental Medicine, SB RAS, Novosibirsk, Russia) and Prof. Dmitry Kuprash (Engelhardt Institute of Molecular Biology, RAS, Moscow, Russia), respectively. The cells were cultured in DMEM (Sigma-Aldrich Inc., St. Louis, MO, USA) supplemented with 10% (v/v) heat-inactivated fetal bovine serum (FBS) (BioloT, St. Petersburg, Russia) and antibiotic–antimycotic solution (100 U/mL penicillin, 100 µg/mL streptomycin, 0.25 µg/mL amphotericin). […] The cells were incubated at 37 °C in a humidified 5% CO2-containing air atmosphere (hereafter referred to as standard conditions). GA derivatives were dissolved in DMSO (stock solutions: 10 mM) and stored at −20 °C prior to use.
(§3) Cells were seeded in tetra- or pentaplicates in 96-well plates at a density of 10^4 (tumor cells and […] fibroblasts) or 10^5 (RAW264.7 cells) cells per well. Cells were incubated under standard conditions for 24 h, followed by their treatment with the investigated derivatives (0.5–50 µM) or corresponding concentrations of DMSO (control) for a further 48 h (tumor cells and fibroblasts) or 24 h (RAW264.7 cells). At the end of incubation period, 10 µL of MTT solution was added to the cells (final concentration: 0.5 mg/mL) and plates were incubated for an additional 2 h under standard conditions. Then, the MTT-containing medium was aspirated and formazan crystals formed in living cells were solubilized with 100 µL of DMSO. The absorbance of each well was read at test and reference wavelengths of 570 and 620 nm, respectively, on a Multiscan RC plate reader (Thermo LabSystems, Helsinki, Finland). The IC50 values (the concentration of compounds leading to a decrease of A570 to 50% of A570^control) were calculated by extrapolation of the dose–response curves. […] A heatmap of SI values was constructed by Microsoft Excel 2010.

[1] = system: nontransformed human fibroblasts hFF3; assay: MTT cytotoxicity assay, 48 h; format: cell-based; conditions: Homo sapiens, HFF-3, read-out: IC50, µM Fibroblast hFF3
Experimental: as §1, §2, §3

[2] = system: human duodenal carcinoma HuTu-80; assay: MTT cytotoxicity assay, 48 h; format: cell-based; conditions: for IC50: Homo sapiens, HuTu80, MTT, 48 h, read-out: IC50, µM Duodenum HuTu-80; for Selectivity index: HuTu-80: IC50 in hFF3 / IC50 in HuTu-80
Experimental: as §1, §2, §3

[3] = system: human cervical carcinoma KB-3-1; assay: MTT cytotoxicity assay, 48 h; format: cell-based; conditions: for IC50: Homo sapiens, KB 3-1, MTT, 48 h, read-out: IC50, µM Cervix KB-3-1; for Selectivity index: KB-3-1: IC50 in hFF3 / IC50 in KB-3-1
Experimental: as §1, §2, §3

[4] = system: human lung adenocarcinoma A549; assay: MTT cytotoxicity assay, 48 h; format: cell-based; conditions: for IC50: Homo sapiens, A549, MTT, 48 h; for Selectivity index: A549: IC50 in hFF3 / IC50 in A549
Experimental: as §1, §2, §3

[5] = system: human cervical carcinoma HeLa; assay: MTT cytotoxicity assay, 48 h; format: cell-based; conditions: for IC50: Homo sapiens, HeLa, MTT, 48 h, read-out: IC50, µM Cervix HeLa; for Selectivity index: HeLa: IC50 in hFF3 / IC50 in HeLa
Experimental: as §1, §2, §3

| Compound | Selectivity index: B16 (murine melanoma B16) | IC50 (murine melanoma B16) [µM] | IC50 [1] [µM] | IC50 [2] [µM] | Selectivity index: HuTu-80 [2] | IC50 [3] [µM] | Selectivity index: KB-3-1 [3] | IC50 [4] [µM] | Selectivity index: A549 [4] | IC50 [5] [µM] | Selectivity index: HeLa [5] | melting point |
| --- | --- | --- | --- | --- | --- | --- | --- | --- | --- | --- | --- | --- |
| CC(=O)O[C@H]1CC[C@@]2(C)C(CC[C@]3(C)C2C(=O)C=C2[C@@H]4C[C@@](C)(C(=O)O)CC[C@]4(C)CC[C@]23C)C1(C)C (stereo partly drawn) [Compound 1, 3β-acetoxy-11-oxo-18βH-olean-12-en-29-oic acid, reference compound] | 1.2 | 11.5 ± 1.5 | 13.6 ± 2.2 | 2.9 ± 0.1 | 4.7 | 7.4 ± 0.6 | 1.8 | 15.9 ± 2.3 | 0.9 | 12.7 ± 1.1 | 1.1 |  |
| CC/C(N)=N\OC(=O)[C@@]1(C)CC[C@]2(C)CC[C@]3(C)C(=CC(=O)C4[C@@]5(C)CC[C@H](OC(C)=O)C(C)(C)C5CC[C@]43C)[C@@H]2C1 (stereo partly shown) [Compound 3b] | 0.4 | 7.2 ± 0.6 | 2.9 ± 0.3 | 2.4 ± 0.2 | 1.2 | 6.7 ± 0.7 | 0.4 | 7.3 ± 3 | 0.4 | 3.3 ± 0.2 | 0.9 | 120 °C (dec.) |
| CC(=O)O[C@H]1CC[C@@]2(C)C(CC[C@]3(C)C2C(=O)C=C2[C@@H]4C[C@@](C)(C(=O)O/N=C(/N)C(C)C)CC[C@]4(C)CC[C@]23C)C1(C)C (stereo partly shown) [Compound 3c] | 0.5 | 5.6 ± 0.2 | 2.6 ± 0.1 | 2.1 ± 0.2 | 1.2 | 4.9 ± 0.4 | 0.5 | 2.6 ± 0.1 | 1.0 | 3 ± 0.2 | 0.9 | 120.3 °C (dec.) |
| CC(=O)O[C@H]1CC[C@@]2(C)C(CC[C@]3(C)C2C(=O)C=C2[C@@H]4C[C@@](C)(C(=O)O/N=C(/N)c5ccccc5)CC[C@]4(C)CC[C@]23C)C1(C)C (stereo partly shown) [Compound 3e] | 0.4 | 16.4 ± 0.7 | 7.3 ± 0.3 | 7.5 ± 0.1 | 1.0 | 16 ± 1.4 | 0.5 | 4.9 ± 0.4 | 1.5 | 5.8 ± 0.8 | 1.3 | 144.6 to 145 °C |
| CC(=O)O[C@H]1CC[C@@]2(C)C(CC[C@]3(C)C2C(=O)C=C2[C@@H]4C[C@@](C)(C(=O)O/N=C(/N)c5ccccn5)CC[C@]4(C)CC[C@]23C)C1(C)C (stereo partly shown) [Compound 3f] | 0.3 | 22.5 ± 3.1 | 7.6 ± 1 | 6.9 ± 0.3 | 1.1 | 10.9 ± 2.2 | 0.7 | 7.7 ± 1.8 | 1.0 | 6.4 ± 1 | 1.2 | 165.8 °C (dec.) |
| CC(=O)O[C@H]1CC[C@@]2(C)C(CC[C@]3(C)C2C(=O)C=C2[C@@H]4C[C@@](C)(C(=O)O/N=C(/N)c5cccnc5)CC[C@]4(C)CC[C@]23C)C1(C)C (stereo partly shown) [Compound 3g] | 1.0 | 8.9 ± 1.1 | 8.5 ± 0.3 | 4.9 ± 0.3 | 1.7 | 10 ± 0.9 | 0.9 | 5.6 ± 0.9 | 1.5 | 6.1 ± 1 | 1.4 | 149.7 °C (dec.) |
| CC(=O)O[C@H]1CC[C@@]2(C)C(CC[C@]3(C)C2C(=O)C=C2[C@@H]4C[C@@](C)(C(=O)O/N=C(/N)c5ccncc5)CC[C@]4(C)CC[C@]23C)C1(C)C (stereo partly shown) [Compound 3h] | 1.4 | 7.8 ± 1.9 | 11.1 ± 0.5 | 5.6 ± 0.1 | 2.0 | 7 ± 1.4 | 1.6 | 7.1 ± 1.6 | 1.6 | 7.1 ± 1.4 | 1.6 | 161.3 °C (dec.) |
| CC1(C)C2CC[C@]3(C)C(C(=O)C=C4[C@@H]5C[C@@](C)(c6nc(-c7cccnc7)no6)CC[C@]5(C)CC[C@]43C)[C@@]2(C)CC[C@@H]1O (stereo partly drawn) [Compound 5g, 30-nor-3β-hydroxy-11-oxo-20-(3′-(pyridin-3′′-yl)-1′,2′,4′-oxadiazol-5′-yl)-18βH-olean-12-en] |  | > 50 | > 50 | 4.7 ± 0.2 | > 10.6 | 16.9 ± 1.4 | > 3.0 | > 50 |  | 4.6 ± 0.3 | > 10.9 | 231.6 °C (dec.) |
| CC1(C)C2CC[C@]3(C)C(C(=O)C=C4[C@@H]5C[C@@](C)(c6nc(-c7ccncc7)no6)CC[C@]5(C)CC[C@]43C)[C@@]2(C)CC[C@@H]1O (stereo partly drawn) [Compound 5h, 30-nor-3β-hydroxy-11-oxo-20-(3′-(pyridin-4′′-yl)-1′,2′,4′-oxadiazol-5′-yl)-18βH-olean-12-en] |  | > 50 | > 50 | 4.7 ± 0.4 | > 10.6 | 4.9 ± 0.3 | > 10.2 | > 50 |  | 3.5 ± 0.1 | > 14.3 | 129.5 to 129.9 °C |
